# PubChem BioAssay AID1963973 (Molecular Pharmacology Branch, DTP, NCI, 2024)
# System: 883617-216-R-J1-PDC tumor spheroids, viability
# Experiment: Anticancer human tumor 883617-216-R-J1-PDC patient-derived bladder carcinoma cell line growth inhibition [PI3K]
# Conditions: spheroids with HUVEC and MSC; for IC50: curve of first compound; for viability, T/C: stronger effect = lower value
# Method in brief: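 We assembled tumor spheroids that included a stromal compartment of HUVEC and MSCs, then exposed them to targeted agents alone and together with PI3K pathway inhibitors. Concentration series descended by half-log from clinically achievable Cmax levels. Viability served as the endpoint.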
# [1] = second compound 0.0316 µM, first compound 0.0316 µM
# [2] = second compound 0.0316 µM, first compound 0.1 µM
# [3] = second compound 0.0316 µM, first compound 0.316 µM
# [4] = second compound 0.0316 µM, first compound 1 µM
# [5] = second compound 0.0316 µM, first compound 3.16 µM
# [6] = second compound 0.0316 µM, first compound 10 µM
# [7] = second compound 0.1 µM, first compound 0.0316 µM
# [8] = second compound 0.1 µM, first compound 0.1 µM
# [9] = second compound 0.1 µM, first compound 0.316 µM
# [10] = second compound 0.1 µM, first compound 1 µM
# [11] = second compound 0.1 µM, first compound 3.16 µM
# [12] = second compound 0.1 µM, first compound 10 µM
# [13] = second compound 0.316 µM, first compound 0.0316 µM
# [14] = second compound 0.316 µM, first compound 0.1 µM
# [15] = second compound 0.316 µM, first compound 0.316 µM
# [16] = second compound 0.316 µM, first compound 1 µM
# [17] = second compound 0.316 µM, first compound 3.16 µM
# [18] = second compound 0.316 µM, first compound 10 µM
# [19] = second compound 1 µM, first compound 0.0316 µM
# [20] = second compound 1 µM, first compound 0.1 µM
# [21] = second compound 1 µM, first compound 0.316 µM
# [22] = second compound 1 µM, first compound 1 µM
# [23] = second compound 1 µM, first compound 3.16 µM
# [24] = second compound 1 µM, first compound 10 µM
# [25] = second compound 3.16 µM, first compound 0.0316 µM
# [26] = second compound 3.16 µM, first compound 0.1 µM
# [27] = second compound 3.16 µM, first compound 0.316 µM
# [28] = second compound 3.16 µM, first compound 1 µM
# [29] = second compound 3.16 µM, first compound 3.16 µM
# [30] = second compound 3.16 µM, first compound 10 µM
# [31] = second compound 10 µM, first compound 0.0316 µM
# [32] = second compound 10 µM, first compound 0.1 µM
# [33] = second compound 10 µM, first compound 0.316 µM
# [34] = second compound 10 µM, first compound 1 µM
# [35] = second compound 10 µM, first compound 3.16 µM
# [36] = second compound 10 µM, first compound 10 µM
# 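Also: spheroids exposed to agents for 7 days before the viability read.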
structure (smiles),measurement,setting,value
C#Cc1c(F)ccc2cc(O)cc(-c3ncc4c(N5CC6CCC(C5)N6)nc(OCC56CCCN5CC(F)C6)nc4c3F)c12 (stereo unspecified) + Cc1nc(NC(=O)N2CCCC2C(N)=O)sc1-c1ccnc(C(C)(C)C(F)(F)F)c1,IC50,second compound 0.0316 µM,> 10000 nM
same,IC50,second compound 0.1 µM,6560 nM
same,IC50,second compound 0.316 µM,< 31.6 nM
same,IC50,second compound 1 µM,< 31.6 nM
same,IC50,second compound 3.16 µM,< 31.6 nM
same,IC50,second compound 10 µM,< 31.6 nM
same,"viability, T/C",[1],81.1%
same,"viability, T/C",[2],89.1%
same,"viability, T/C",[3],77.6%
same,"viability, T/C",[4],80.9%
same,"viability, T/C",[5],79.7%
same,"viability, T/C",[6],57.5%
same,"viability, T/C",[7],69.8%
same,"viability, T/C",[8],66.5%
same,"viability, T/C",[9],76.8%
same,"viability, T/C",[10],74.2%
same,"viability, T/C",[11],63.1%
same,"viability, T/C",[12],41.1%
same,"viability, T/C",[13],53.8%
same,"viability, T/C",[14],47.3%
same,"viability, T/C",[15],45.5%
same,"viability, T/C",[16],46.5%
same,"viability, T/C",[17],43.7%
same,"viability, T/C",[18],24.7%
same,"viability, T/C",[19],28.2%
same,"viability, T/C",[20],28.3%
same,"viability, T/C",[21],26.8%
same,"viability, T/C",[22],29%
same,"viability, T/C",[23],24.7%
same,"viability, T/C",[24],19.9%
same,"viability, T/C",[25],15.2%
same,"viability, T/C",[26],13.1%
same,"viability, T/C",[27],12.6%
same,"viability, T/C",[28],14.5%
same,"viability, T/C",[29],15.3%
same,"viability, T/C",[30],8.2%
same,"viability, T/C",[31],7.88%
same,"viability, T/C",[32],7.4%
same,"viability, T/C",[33],5.56%
same,"viability, T/C",[34],7.83%
same,"viability, T/C",[35],5.24%
same,"viability, T/C",[36],0.61%
C=CC(=O)N1CCN(c2nc(=O)n(-c3c(C)ccnc3C(C)C)c3nc(-c4c(O)cccc4F)c(F)cc23)C(C)C1 (stereo unspecified) + Cc1nc(NC(=O)N2CCCC2C(N)=O)sc1-c1ccnc(C(C)(C)C(F)(F)F)c1,IC50,second compound 0.0316 µM,< 31.6 nM
same,IC50,second compound 0.1 µM,< 31.6 nM
same,IC50,second compound 0.316 µM,< 31.6 nM
same,IC50,second compound 1 µM,< 31.6 nM
same,IC50,second compound 3.16 µM,< 31.6 nM
same,IC50,second compound 10 µM,< 31.6 nM
same,"viability, T/C",[1],56.5%
same,"viability, T/C",[2],45.7%
same,"viability, T/C",[3],44.1%
same,"viability, T/C",[4],51.8%
same,"viability, T/C",[5],70.4%
same,"viability, T/C",[6],60.9%
same,"viability, T/C",[7],37.3%
same,"viability, T/C",[8],35.9%
same,"viability, T/C",[9],40.3%
same,"viability, T/C",[10],34.9%
same,"viability, T/C",[11],52.9%
same,"viability, T/C",[12],46.2%
same,"viability, T/C",[13],32.5%
same,"viability, T/C",[14],22.4%
same,"viability, T/C",[15],25.6%
same,"viability, T/C",[16],27.5%
same,"viability, T/C",[17],34.6%
same,"viability, T/C",[18],35%
same,"viability, T/C",[19],14.7%
same,"viability, T/C",[20],12.8%
same,"viability, T/C",[21],13.9%
same,"viability, T/C",[22],17.1%
same,"viability, T/C",[23],26.2%
same,"viability, T/C",[24],20.5%
same,"viability, T/C",[25],10.3%
same,"viability, T/C",[26],6.71%
same,"viability, T/C",[27],6.68%
same,"viability, T/C",[28],9.84%
same,"viability, T/C",[29],12.8%
same,"viability, T/C",[30],11.2%
same,"viability, T/C",[31],3.61%
same,"viability, T/C",[32],2.75%
same,"viability, T/C",[33],3.18%
same,"viability, T/C",[34],4.91%
same,"viability, T/C",[35],7.96%
same,"viability, T/C",[36],6.43%
CC(Cn1ccc(-c2ccc(C#N)c(Cl)c2)n1)NC(=O)c1cc(C(C)O)[nH]n1 (stereo unspecified) + Cc1nc(NC(=O)N2CCCC2C(N)=O)sc1-c1ccnc(C(C)(C)C(F)(F)F)c1,IC50,second compound 0.0316 µM,> 10000 nM
same,IC50,second compound 0.1 µM,> 10000 nM
same,IC50,second compound 0.316 µM,< 31.6 nM
same,IC50,second compound 1 µM,< 31.6 nM
same,IC50,second compound 3.16 µM,< 31.6 nM
same,IC50,second compound 10 µM,< 31.6 nM
same,"viability, T/C",[1],86.2%
same,"viability, T/C",[2],77.4%
same,"viability, T/C",[3],85.3%
same,"viability, T/C",[4],101%
same,"viability, T/C",[5],100%
same,"viability, T/C",[6],93.8%
same,"viability, T/C",[7],73.8%
same,"viability, T/C",[8],60.6%
same,"viability, T/C",[9],67.9%
same,"viability, T/C",[10],78.9%
same,"viability, T/C",[11],70%
same,"viability, T/C",[12],67.4%
same,"viability, T/C",[13],45.4%
same,"viability, T/C",[14],40.1%
same,"viability, T/C",[15],50.6%
same,"viability, T/C",[16],42.5%
same,"viability, T/C",[17],55%
same,"viability, T/C",[18],55.9%
same,"viability, T/C",[19],30.8%
same,"viability, T/C",[20],31%
same,"viability, T/C",[21],28.8%
same,"viability, T/C",[22],24.7%
same,"viability, T/C",[23],28.8%
same,"viability, T/C",[24],28%
same,"viability, T/C",[25],13%
same,"viability, T/C",[26],15.4%
same,"viability, T/C",[27],15.5%
same,"viability, T/C",[28],15.3%
same,"viability, T/C",[29],16.2%
same,"viability, T/C",[30],15.3%
same,"viability, T/C",[31],6.67%
same,"viability, T/C",[32],7.22%
same,"viability, T/C",[33],6.48%
same,"viability, T/C",[34],6.6%
same,"viability, T/C",[35],9.29%
same,"viability, T/C",[36],7.26%
